Reference: US9833497B2, “Human originated EGF domain proteins and use of the same” (CHENGDU SOURCEBIO LIMITED-LIABILITY COMPANY, priority 2013, dated 2017)

Key:
Assay type in all cases: cell-based
[1] = test system: Klebsiella pneumonia; experiment: MIC against Gram-negative bacteria: Klebsiella pneumonia; details: for MIC against K. pneumonia / MIC (μg/mL) K. pneumonia: 5×10^5 CFU/mL
How it was run: (§1)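 The recombinant human-originated EGF domain proteins were serially diluted two-fold against bacteria at 5×10^5 CFU/mL in LB medium. After shaken incubation at 37° C, the lowest concentration with no bacterial growth was recorded as the MIC.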

[2] = test system: E. coli BL21; experiment: MIC against Gram-negative bacteria: E. coli BL21; details: for MIC against E. coli BL21 / MIC (μg/mL) E. coli BL21: 5×10^5 CFU/mL
How it was run: as §1

[3] = test system: Proteus mirabilis; experiment: MIC against Gram-negative bacteria: Proteus mirabilis; details: for MIC against P. mirabilis / MIC (μg/mL) P. mirabilis: 5×10^5 CFU/mL
How it was run: as §1

[4] = test system: Enterobacter cloacae; experiment: MIC against Gram-negative bacteria: Enterobacter cloacae; details: for MIC against E. cloacae / MIC (μg/mL) E. cloacae: 5×10^5 CFU/mL
How it was run: as §1

[5] = test system: Pseudomonas aeruginosa; experiment: MIC against Gram-negative bacteria: Pseudomonas aeruginosa; details: for MIC against P. aeruginosa / MIC (μg/mL) P. aeruginosa: 5×10^5 CFU/mL
How it was run: as §1

[6] = test system: Citrobacter diversus; experiment: MIC against Gram-negative bacteria: Citrobacter diversus; details: for MIC against C. diversus / MIC (μg/mL) C. diversus: 5×10^5 CFU/mL
How it was run: as §1

[7] = test system: Moraxella catarrhalis; experiment: MIC against Gram-negative bacteria: Moraxella catarrhalis; details: for MIC against M. catarrhalis / MIC (μg/mL) M. catarrhalis: 5×10^5 CFU/mL
How it was run: as §1

[8] = test system: Serratia marcescens; experiment: MIC against Gram-negative bacteria: Serratia marcescens; details: for MIC against S. marcescens / MIC (μg/mL) S. marcescens: 5×10^5 CFU/mL
How it was run: as §1

[9] = test system: Proteus vulgaris; experiment: MIC against Gram-negative bacteria: Proteus vulgaris; details: for MIC against P. vulgaris / MIC (μg/mL) P. vulgaris: 5×10^5 CFU/mL
How it was run: as §1

[10] = test system: E. coli DH5α; experiment: Antibacterial activity: MIC and growth curve against E. coli DH5α in 96-well plate; details: minimal inhibitory concentration against E. coli DH5α; 96-well plate, 5×10^5 CFU/mL, 37° C., judged after 8 h
How it was run: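 MIC taken as lowest protein level with no bacterial growth, tracked by A600 every 30 min during 37 °C, 175 rpm culture. Two-fold protein series 50-12.5 μg/mL final, triplicate wells, against 5×10^5 CFU/mL of LB-washed mid-log cells.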

[11] = test system: Aeromonas hydrophila; experiment: MIC against Gram-negative bacteria: Aeromonas hydrophila; details: for MIC against A. hydrophila / MIC (μg/mL) A. hydrophila: 5×10^5 CFU/mL
How it was run: as §1

[12] = Klebsiella pneumonia, 96-well plate, 37° C., 10 h
[13] = E. coli BL21, 96-well plate, 37° C., 10 h
[14] = Proteus mirabilis, 96-well plate, 37° C., 10 h
[15] = Enterobacter cloacae, 96-well plate, 37° C., 10 h
[16] = Pseudomonas aeruginosa, 96-well plate, 37° C., 10 h
[17] = Citrobacter diversus, 96-well plate, 37° C., 10 h
[18] = Moraxella catarrhalis, 96-well plate, 37° C., 10 h
[19] = Serratia marcescens, 96-well plate, 37° C., 10 h
[20] = Proteus vulgaris, 96-well plate, 37° C., 10 h
[21] = Aeromonas hydrophila, 96-well plate, 37° C., 10 h
[22] = K. pneumonia, 10 h cultivation at 37° C.
[23] = E. coli BL21, 10 h cultivation at 37° C.
[24] = P. mirabilis, 10 h cultivation at 37° C.
[25] = E. cloacae, 10 h cultivation at 37° C.
[26] = P. aeruginosa, 10 h cultivation at 37° C.
[27] = C. diversus, 10 h cultivation at 37° C.
[28] = M. catarrhalis, 10 h cultivation at 37° C.
[29] = S. marcescens, 10 h cultivation at 37° C.
[30] = P. vulgaris, 10 h cultivation at 37° C.
[31] = A. hydrophila, 10 h cultivation at 37° C.

PRT509 (CNCSTVGSLDFQCNVNTGQCNCHPKFSGAKCTECSRGHWNYPRCNL; listed as Homo sapiens)
25 mg/L: MIC against K. pneumonia ([1]; 96-well plate, 37° C., 10 h) | MIC against E. coli BL21 ([2]; 96-well plate, 37° C., 10 h) | MIC against S. marcescens ([8]; 96-well plate, 37° C., 10 h)
12.5 mg/L: MIC against P. mirabilis ([3]; 96-well plate, 37° C., 10 h) | MIC against E. cloacae ([4]; 96-well plate, 37° C., 10 h) | MIC against P. aeruginosa ([5]; 96-well plate, 37° C., 10 h) | MIC against C. diversus ([6]; 96-well plate, 37° C., 10 h) | MIC against M. catarrhalis ([7]; 96-well plate, 37° C., 10 h) | MIC against P. vulgaris ([9]; 96-well plate, 37° C., 10 h) | MIC [10] | MIC against A. hydrophila ([11]; 96-well plate, 37° C., 10 h)

PRT1311 (LLDPCSKNNGGCSPYATCKSTGDGQRTCTCDTAHTVGDGLTCR; listed as Homo sapiens)
25 mg/L: MIC against K. pneumonia [1, 12] | MIC against E. coli BL21 [2, 13] | MIC against M. catarrhalis [7, 18] | MIC against S. marcescens [8, 19] | MIC against P. vulgaris [9, 20]
12.5 mg/L: MIC against P. mirabilis [3, 14] | MIC against P. aeruginosa [5, 16] | MIC against A. hydrophila [11, 21]
50 mg/L: MIC against E. cloacae [4, 15] | MIC against C. diversus [6, 17] | MIC [10]

PRT855 (DVDECATGRASCPRFRQCVNTFGSYICKCHKGFDLMYIGGKYQCH; listed as Homo sapiens)
50 mg/L: MIC [10]
12.5 µg/mL: MIC (μg/mL) E. coli BL21 [2, 23] | MIC (μg/mL) P. mirabilis [3, 24] | MIC (μg/mL) E. cloacae [4, 25] | MIC (μg/mL) C. diversus [6, 27] | MIC (μg/mL) M. catarrhalis [7, 28] | MIC (μg/mL) S. marcescens [8, 29] | MIC (μg/mL) P. vulgaris [9, 30]
50 µg/mL: MIC (μg/mL) P. aeruginosa [5, 26] | MIC (μg/mL) A. hydrophila [11, 31]
25 µg/mL: MIC (μg/mL) K. pneumonia [1, 22]

PRT181 (RADPCAARPCAHGGRCYAHFSGLVCACAPGYMGARCE; listed as Homo sapiens)
25 µg/mL: MIC (μg/mL) P. mirabilis [3, 24] | MIC (μg/mL) E. cloacae [4, 25] | MIC (μg/mL) P. aeruginosa [5, 26] | MIC (μg/mL) C. diversus [6, 27] | MIC (μg/mL) S. marcescens [8, 29]
25 mg/L: MIC [10]
50 µg/mL: MIC (μg/mL) E. coli BL21 [2, 23] | MIC (μg/mL) P. vulgaris [9, 30] | MIC (μg/mL) A. hydrophila [11, 31]
12.5 µg/mL: MIC (μg/mL) K. pneumonia [1, 22] | MIC (μg/mL) M. catarrhalis [7, 28]

PRT908 (LDNACLTNPCRNGGTCDLLTLTEYKCRCPPGWSGKSCQ; listed as Homo sapiens)
100 mg/L: MIC [4, 25]
25 mg/L: MIC [3, 24] | MIC [5, 26] | MIC [8, 29] | MIC [9, 30] | MIC [11, 31]
12.5 mg/L: MIC [2, 23] | MIC [7, 28]
50 mg/L: MIC [1, 22] | MIC [6, 27] | MIC [10]

PRT1020 (SRQTCANNRHQCSVHAECRDYATGFCCSCVAGYTGNGRQCV; listed as Homo sapiens)
12.5 mg/L: MIC [2, 23] | MIC [3, 24] | MIC [4, 25] | MIC [5, 26] | MIC [6, 27] | MIC [7, 28] | MIC [10] | MIC [11, 31]
25 mg/L: MIC [1, 22] | MIC [8, 29]
50 mg/L: MIC [9, 30]

PRT95 (DINECETGQHNCVPNSVCINTRGSFQCGPCQPGFVGDQASGCQ; listed as Homo sapiens)
50 µg/mL: MIC (μg/mL) E. cloacae [4, 15] | MIC (μg/mL) P. aeruginosa [5, 16] | MIC (μg/mL) C. diversus [6, 17] | MIC (μg/mL) P. vulgaris [9, 20]
25 µg/mL: MIC (μg/mL) P. mirabilis [3, 14] | MIC (μg/mL) S. marcescens [8, 19]
25 mg/L: MIC [10]
12.5 µg/mL: MIC (μg/mL) K. pneumonia [1, 12] | MIC (μg/mL) E. coli BL21 [2, 13] | MIC (μg/mL) M. catarrhalis [7, 18] | MIC (μg/mL) A. hydrophila [11, 21]
